{"source": "patent US11957783B2", "about": "“Topical immunosensitizers to treat viral and fungal infections” (Squarex, LLC, priority 2018, dated 2024)", "system": "herpes labialis outbreak", "experiment": "Clinical trial of herpes labialis outbreaks after sensitization dose (Example 2)", "type": "in vivo, human", "conditions": "for Average days to first outbreak after the sensitization dose: 120 days used if no outbreak in 120 days", "experimental": "The median time to the next outbreak for the placebo group was 40 days vs more than 122 days for the 2.0% SADBE group, which difference was highly significant (P=0.009) (Palli 2017). SADBE is a topical immunosensitizer that induces a delayed-type hypersensitivity response and is commonly used in the treatment of verruca vulgaris and alopecia areata (Lee 1999; Silverberg 2000, Rokhshar 1998). […]\n(p<0.05). The average days to the first outbreak after the sensitization dose was also measured. […] The A: placebo, 0% SADBE in DMSO.", "note": "Several values for one entry are separate records, joined by “and”; a condition that tells them apart may be missing. Equal values may be shown once. Marks after values point to notes of the source that are not given here.", "data": [{"smiles": "CCCCOc1c(OCCCC)c(=O)c1=O", "note": "[2% SADBE]", "values": [{"measurement": "Persons having an outbreak within X days after the sensitization dose", "setting": "30 days, group B", "result": "2 (of 16)"}, {"measurement": "Persons having an outbreak within X days after the sensitization dose", "setting": "30 days, group C", "result": "3 (of 15)"}, {"measurement": "Persons having an outbreak within X days after the sensitization dose", "setting": "30 days, groups B + C", "result": "5 (of 31)"}, {"measurement": "Persons having an outbreak within X days after the sensitization dose", "setting": "45 days, group B", "result": "4 (of 16)"}, {"measurement": "Persons having an outbreak within X days after the sensitization dose", "setting": "45 days, group C", "result": "4 (of 15)"}, {"measurement": "Persons having an outbreak within X days after the sensitization dose", "setting": "45 days, groups B + C", "result": "8 (of 31)"}, {"measurement": "Persons having an outbreak within X days after the sensitization dose", "setting": "60 days, group B", "result": "5 (of 16)"}, {"measurement": "Persons having an outbreak within X days after the sensitization dose", "setting": "60 days, group C", "result": "4 (of 15)"}, {"measurement": "Persons having an outbreak within X days after the sensitization dose", "setting": "60 days, groups B + C", "result": "9 (of 31)"}, {"measurement": "Persons having an outbreak within X days after the sensitization dose", "setting": "<120 days, group B", "result": "6 (of 16)"}, {"measurement": "Persons having an outbreak within X days after the sensitization dose", "setting": "<120 days, group C", "result": "4 (of 15)"}, {"measurement": "Persons having an outbreak within X days after the sensitization dose", "setting": "<120 days, groups B + C", "result": "10 (of 31)"}, {"measurement": "Days to first new outbreak after sensitization dose on upper arm", "setting": "each patient", "result": "18 days and 34 days and 37 days and 41 days and 50 days and 80 days and 91 days and >120 days (19×) and 14 days (2×) and 15 days"}, {"measurement": "Average days to first outbreak after the sensitization dose", "setting": "group B", "result": 88.5, "unit": "days"}, {"measurement": "Average days to first outbreak after the sensitization dose", "setting": "group C", "result": 94.7, "unit": "days"}, {"measurement": "Average days to first outbreak after the sensitization dose", "setting": "groups B + C", "result": "91.5* days"}, {"measurement": "Days to first new outbreak after sensitization dose on upper arm, median", "setting": "treatment group", "result": "> 120", "unit": "days"}]}]}
